US8168656B2, “Indoleacetic acid and indenacetic acid derivatives as therapeutic agents with reduced gastrointestinal toxicity” (Vanderbilt University, priority 2009, dated 2012)
Where a chain is given by its changes, count along the chain named.

How the values were obtained:
Experiment in all cases: Time-dependent IC50 COX inhibition assay
Type in all cases: biochemical, murine
[1] = target: T1, mCOX-2^V349A (Mus musculus, UniProt Q05769, V335A)
T1 construct: made in house; host or cells: Sf9 insect cells (baculovirus, pVL1393)
T1 sequence (Q05769 18-604 V335A): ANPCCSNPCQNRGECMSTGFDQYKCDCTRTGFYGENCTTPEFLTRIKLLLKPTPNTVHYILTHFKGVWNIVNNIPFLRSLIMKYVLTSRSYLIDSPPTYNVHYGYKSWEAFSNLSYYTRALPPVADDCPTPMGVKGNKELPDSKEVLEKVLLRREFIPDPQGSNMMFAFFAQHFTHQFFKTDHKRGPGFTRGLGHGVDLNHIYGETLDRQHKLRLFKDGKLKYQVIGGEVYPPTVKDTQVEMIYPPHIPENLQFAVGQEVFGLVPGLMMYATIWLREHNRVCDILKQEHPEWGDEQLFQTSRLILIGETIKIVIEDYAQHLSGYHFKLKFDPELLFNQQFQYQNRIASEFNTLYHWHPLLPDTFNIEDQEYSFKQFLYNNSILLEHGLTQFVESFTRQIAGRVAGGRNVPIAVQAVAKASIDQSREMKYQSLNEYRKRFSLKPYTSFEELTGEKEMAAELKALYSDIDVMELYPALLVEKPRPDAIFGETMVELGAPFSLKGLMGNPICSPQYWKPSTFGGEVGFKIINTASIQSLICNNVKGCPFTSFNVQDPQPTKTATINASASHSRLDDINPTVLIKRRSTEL
Protocol: (§1) These mutated genes were used to assemble baculoviral constructs for large-scale expression in Sf9 cells. Purification of the expressed COX-2 protein was performed through traditional cellular fractionation and classical column chromatography. Activity or inhibition assays were performed in 100 mM Tris-HCl buffer containing 500 μM phenol, with hematin-reconstituted protein. Quantification of cyclooxygenase activity was performed by monitoring substrate (arachidonate or oxygen) consumption in a thermostatted cuvette at 37° C. using a polarographic electrode with a 5300 oxygen monitor (Yellow Springs Instrument Co. Inc., Yellow Springs, Ohio, United States of America). All inhibitors and substrates were solubilized in dimethyl sulfoxide (DMSO). Activity or inhibition assays were performed in 100 mM Tris-HCl buffer containing 500 μM phenol, with hematin-reconstituted protein. Maximal reaction velocity data were obtained from the linear portion of the oxygen uptake curves, and the data were analyzed by nonlinear regression with Prism 4.0 (GraphPad Software, San Diego, Calif., United States of America).
(§2) Time-dependent inhibition reactions were performed by pre-incubating the inhibitor and enzyme for 17 minutes at 25° C., followed by 3 minutes at 37° C. prior to the addition of 50 μM [1-^14C]-AA for 30 seconds at 37° C. Assays were terminated and analyzed for substrate consumption by thin layer chromatography as previously described (Kalgutkar et al., 2000a).
(§3) Maximal reaction velocity data were obtained from the linear portion of the oxygen uptake curves, and the data were analyzed by nonlinear regression. Instantaneous inhibition assays were performed with substrate and inhibitor added prior the initiation of the reaction by addition of protein. Time-dependent screening assays were performed by pre-incubating the inhibitor and enzyme for 17 minutes at 25° C., followed by 3 minutes at 37° C. prior to the addition of 50 μM [1-^14C]-arachidonic acid (AA) for 30 seconds at 37° C.
(§4) Assays were terminated and analyzed for substrate consumption by thin layer chromatography. […] Time-dependent COX inhibition reactions were pre-incubated at 37° C. for varying lengths of time (0-30 minutes) with various concentrations of inhibitor. All reactions were performed with [1-^14C]-AA for 30 seconds at 37° C.; reactions were terminated and analyzed as described above.
(§5) The COX reaction was allowed to proceed for 30 seconds before termination.

[2] = target: T2, mCOX-2^V349I (Mus musculus, UniProt Q05769, V335I); conditions: 20 min pre-incubation, then 50 μM AA for 30 s
T2 construct: made in house; host or cells: Sf9 insect cells (baculovirus, pVL1393)
T2 sequence (Q05769 18-604 V335I): T1 sequence (Q05769 18-604 V335A) with A318I
Protocol: as §1, §2, §3, §4, §5

[3] = target: T3, wild type mCOX-2 (Mus musculus, UniProt Q05769); conditions: 20 min pre-incubation, then 50 μM AA for 30 s
T3 construct: made in house; host or cells: Sf9 insect cells (baculovirus, pVL1393)
T3 sequence (Q05769 18-604): T1 sequence (Q05769 18-604 V335A) with A318V
Protocol: as §1, §2, §3, §4, §5

Compound: COc1ccc2c(c1)c(CC(=O)O)cn2C(=O)c1ccc(Cl)cc1 [DM-INDO, 2-Des-methylindomethacin]
- inhibition in the time-dependent IC50 assay [1]: less than 20%
- IC50 ([1]; 20 min pre-incubation, then 50 μM AA for 30 s): > 16 µM
- IC50 [2]: 3 µM
- IC50 [3]: 4 µM
